Measurements taken from patent US10035818B2, “Polyethylene glycol based prodrug of adrenomedullin and use thereof” (Bayer Pharma Aktiengesellschaft, priority 2011, dated 2018).
Where no end group is shown, it is not given here. Side-chain parts run from the residue outwards. Dab = NCC[C@H](N)C(=O)O

Columns and labels:
[1] = tested on: normotensive Wistar rats; assay: Blood pressure and heart rate in telemetered, normotensive Wistar rats; format: in vivo
Text: The cardiovascular effects induced by compounds according to the invention are investigated in freely moving conscious female Wistar rats (body weight>200 g) by radiotelemetric measurement of blood pressure and heart rate. Briefly, the telemetric system (DSI Data Science International, MN, USA) is composed on 3 basic elements: implantable transmitters (TA11PA-C40), receivers (RA1010) and a computer-based acquisition software (Dataquest™ A.R.T. 4.1 for Windows). Rats are instrumented with pressure implants for chronic use at least 14 days prior to the experiments. The sensor catheter is tied with 4-0 suture several times to produce a stopper 0.5 cm from the tip of the catheter. During catheter implantation rats are anesthetized with pentobabital (Nembutal, Sanofi: 50 mg/kg i.p.). After shaving the abdominal skin, a midline abdominal incision is made, and the fluid-filled sensor catheter is inserted upstream into the exposed descending aorta between the iliac bifurcation and the renal arteries. The catheter is tied several times at the stopper. The tip of the telemetric catheter is located just caudal to the renal arteries and secured by tissue adhesive. The transmitter body is affixed to the inner peritoneal wall before closure of abdomen. A two-layer closure of the abdominal incision is used, with individual suturing of the peritoneum and the muscle wall followed by closure of the outer skin. For postsurgical protection against infections and pain a single dosage of an antibiotic (Oxytetracyclin 10% R, 5.0 ml/kg s.c., beta-pharma GmbH&Co, Germany) and analgesic is injected (Rimadyl R, 5.0 ml/kg s.c., Pfizer, Germany). The hardware configuration is equipped for 24 animals. Each rat cage is positioned on top of an individual receiver platform. After activation of the implanted transmitters, an on-line data acquisition system, samples data and converts telemetric pressure signals to mm Hg. A barometric pressure reference allows for relation of absolute pressure (relative to vacuum) to ambient atmospheric pressure. […]

[2] = tested on: Göttingen minipigs; assay: Acute lung injury in mini pigs induced by intratracheal LPS; format: in vivo
Text: (§1) Acute lung injury is induced in anesthetized mini pigs by use of lipopolysaccharide (LPS) or oleic acid as challenges. In detail: female Göttingen minipigs of ca. 3.5 to 5.5 kg body weight (Ellegaard, Denmark) are kept anesthetized by an continuous i.v.-infusion of Ketavet®, Dormicum® and Pancuronium® after premedication with an intramuscular injection of Ketavet®/Stresnil®. After intratracheal intubation animals are artificially ventilated using a pediatric respirator (Sulla 808V; Dräger, Germany) with an oxygen air mixture at a tidal volume of 30 to 50 ml and constant frequency of 25 min^−1. Arterial PaCO2 is adjusted to about 40 mmHg by […]. […] Cellular content of BALF is determined by use of a blood cell counter (Cell DYN 3700). […]

[3] = tested on: Göttingen minipigs; assay: Acute lung injury in mini pigs induced by oleic acid infusion; format: in vivo
Text: as §1

[4] = molecular target: T1, human adrenomedullin-receptor (Homo sapiens, UniProt O60895+Q16602); assay: Recombinant adrenomedullin-receptor reporter cell (CHO, aequorin luminescence); format: cell-based; conditions: before incubation; read-out: EC50 T = 0 h
T1 construct: expressed in transfected cells; host or cells: CHO (Chinese hamster ovary) aequorin reporter cell line
T1 sequence (Q16602 23-461): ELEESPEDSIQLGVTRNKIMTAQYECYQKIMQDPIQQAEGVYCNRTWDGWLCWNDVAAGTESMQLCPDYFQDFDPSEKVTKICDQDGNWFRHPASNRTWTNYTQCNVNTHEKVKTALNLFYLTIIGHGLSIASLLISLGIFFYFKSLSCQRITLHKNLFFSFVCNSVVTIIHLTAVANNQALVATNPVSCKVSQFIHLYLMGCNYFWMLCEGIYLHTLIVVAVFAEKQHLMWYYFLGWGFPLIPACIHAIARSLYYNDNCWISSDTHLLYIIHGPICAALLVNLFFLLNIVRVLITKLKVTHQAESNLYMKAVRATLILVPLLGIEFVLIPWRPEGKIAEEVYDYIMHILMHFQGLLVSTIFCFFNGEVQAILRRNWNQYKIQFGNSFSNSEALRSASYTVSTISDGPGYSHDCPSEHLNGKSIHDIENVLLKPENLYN
T1 sequence (O60895 43-175): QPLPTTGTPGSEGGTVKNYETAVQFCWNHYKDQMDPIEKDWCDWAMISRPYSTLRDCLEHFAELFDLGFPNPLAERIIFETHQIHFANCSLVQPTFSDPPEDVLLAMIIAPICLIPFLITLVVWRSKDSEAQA
Procedure: Activation of the receptor by ligands can be measured by aequorin luminescence. Construction of the cell line and measurement procedure has been described in detail [Wunder F., Rebmann A., Geerts A, and Kalthof B., Mol Pharmacol, 73, 1235-1243 (2008)]. In brief: Cells are seeded on opaque 384-well microtiter plates at a density of 4000 cells/well and are grown for […]. After removal of culture medium, cells are loaded for 3 h with 0.6 μg/ml coelenterazine in Ca^2+-free Tyrode solution (130 mM sodium chloride, 5 mM potassium chloride, 20 mM HEPES (4-(2-hydroxyethyl)-1-piperazineethanesulfonic acid), 1 mM magnesium chloride, and 4.8 mM sodium hydrogen carbonate, pH 7.4) supplemented with 0.2 mM 3-Isobutyl-1-methylxanthine (IBMX) in a cell culture incubator. Compounds are added for 6 min in calcium^2+-free Tyrode solution containing 0.1% bovine serum albumin. Immediately before adding calcium^2+ to a final concentration of 3 mM measurement of the aequorin luminescence is started by use of a suitable luminometer. Luminescence is measured for 60 s.

Compound: CC[C@H](C)[C@H](NC(=O)[C@H](CCC(N)=O)NC(=O)[C@H](Cc1c[nH]cn1)NC(=O)[C@H](C)NC(=O)[C@H](CC(C)C)NC(=O)[C@H](CCCCN)NC(=O)[C@H](CCC(N)=O)NC(=O)[C@@H](NC(=O)[C@@H](NC(=O)[C@@H]1CSSC[C@H](NC(=O)CNC(=O)[C@H](Cc2ccccc2)NC(=O)[C@H](CO)NC(=O)[C@H](CCCNC(=N)N)NC(=O)[C@H](CC(C)C)NC(=O)CNC(=O)[C@H](CCC(N)=O)NC(=O)[C@H](Cc2ccccc2)NC(=O)[C@H](CC(N)=O)NC(=O)[C@H](CC(N)=O)NC(=O)[C@H](CCSC)NC(=O)[C@H](CO)NC(=O)[C@H](CCC(N)=O)NC(=O)[C@H](CCCNC(=N)N)NC(=O)[C@@H](N)Cc2ccc(O)cc2)C(=O)N[C@@H](CCCNC(=N)N)C(=O)N[C@@H](Cc2ccccc2)C(=O)NCC(=O)N[C@@H]([C@@H](C)O)C(=O)N1)[C@@H](C)O)C(C)C)C(=O)N[C@@H](Cc1ccc(O)cc1)C(=O)N[C@@H](CCC(N)=O)C(=O)N[C@@H](Cc1ccccc1)C(=O)N[C@H](C(=O)N[C@@H](CC(=O)O)C(=O)N[C@@H](CCCCN)C(=O)N[C@@H](CC(=O)O)C(=O)N[C@@H](CCCCN)C(=O)N[C@@H](CC(=O)O)C(=O)N[C@@H](CC(N)=O)C(=O)N[C@H](C(=O)N[C@@H](C)C(=O)N1CCC[C@H]1C(=O)N[C@@H](CCCNC(=N)N)C(=O)N[C@@H](CO)C(=O)N[C@@H](CCCCN)C(=O)N[C@H](C(=O)N[C@@H](CO)C(=O)N1CCC[C@H]1C(=O)N[C@@H](CCC(N)=O)C(=O)NCC(=O)N[C@@H](Cc1ccc(O)cc1)C(N)=O)[C@@H](C)CC)C(C)C)[C@@H](C)O [ADM, adrenomedullin (human)]
- duration of blood pressure reduction [1]: ≤ 4 h
- time after which MABP had returned to base line levels ([1]; subcutaneous, FIG. 1): about 3.5 hours
- mean reduction of MABP at peak ([1]; subcutaneous, one hour after administration, FIG. 1): ~20%

Compound: O-{[(3 S)-3-Amino-4-({(2R)-1-amino-3-[(2,5-dioxo-1-{3-oxo-3-[(2-{ω-methoxy-poly-oxyethylen[40 kDa]}ethyl)amino]propyl}pyrrolidin-3-yl)sulfanyl]-1-oxopropan-2-yl}amino)-4-oxobutyl]carbamoyl}-L-tyrosyl-adrenomedullin(2-52) (Y([Dab-Cys‑NH2-succinimide-PEG 40 kDa])RQSMNNFQGLRSFGCRFGTCTVQKLAHQIYQFTDKDKDNVAPRSKISPQGY; cysteine pairing not given here; also: PEG 40 kDa prodrug linker attached by carbamate to Tyr1 phenol O; UniProt P35318 95-146, looked up) [Example 1, PEG 40 kDa based prodrug of adrenomedullin]
- doses found to be active ([2]; as referred to the peptide component, LPS protocol): ≤ 30 μg/kg body weight
- LPS induced changes (PAP, EVWLI, PaO2/FiO2, cellular content of BALF) ([2]; i.v.-bolus 15 min before the LPS challenge): ameliorated or prevented
- oleic acid induced changes (PAP, EVLWI, PaO2/FiO2) ([3]; administration 15 min before start of the OA infusion): ameliorated or prevented
- doses found to be active ([3]; as referred to the peptide component, oleic acid protocol): ≤ 30 μg/kg body weight

Compound: O-{[(3-N-Methyl-amino-4-({(2R)-1-amino-3-[(2,5-dioxo-1-{3-oxo-3-[(2-{ω-methoxy-poly-oxyethylen[40 kDa]}ethyl)amino]propyl}pyrrolidin-3-yl)sulfanyl]-1-oxopropan-2-yl}amino)-4-oxobutyl]carbamoyl}-L-tyrosyl-adrenomedullin(2-52) [Example 2]
- EC50 [4]: > 1 µM
